Measurements: PubChem BioAssay (NCI)
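Values below derive from 48-hour exposures of cells grown in 96-well plates, with endpoints linearly interpolated between the two concentrations bracketing the appropriate inhibition level. TGI denotes the concentration required for complete inhibition of growth.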

How the values were obtained:
Experiment in all cases: inhibition of tumour cell growth, NCI panel, 48 h
LOX IMVI melanoma = system: LOX IMVI melanoma
NCI-H460 lung = system: NCI-H460 lung
MDA-N = system: MDA-N
HOP-92 NSCLC = system: HOP-92 NSCLC
HL-60(TB) leukemia = system: HL-60(TB) leukemia
MOLT-4 leukemia = system: MOLT-4 leukemia
RPMI-8226 leukemia = system: RPMI-8226 leukemia
SF-539 CNS = system: SF-539 CNS
RXF 393 renal = system: RXF 393 renal
COLO 205 colon = system: COLO 205 colon
DU-145 prostate = system: DU-145 prostate
MCF7 breast = system: MCF7 breast
UACC-62 melanoma = system: UACC-62 melanoma
A549 NSCLC = system: A549 NSCLC
SK-MEL-2 melanoma = system: SK-MEL-2 melanoma
UO-31 renal = system: UO-31 renal
SN12C renal = system: SN12C renal
NCI/ADR-RES ovarian = system: NCI/ADR-RES ovarian
CCRF-CEM leukemia = system: CCRF-CEM leukemia
T-47D breast = system: T-47D breast
SF-295 CNS = system: SF-295 CNS
K-562 leukemia = system: K-562 leukemia
NCI-H226 lung = system: NCI-H226 lung
UACC-257 melanoma = system: UACC-257 melanoma
U251 CNS = system: U251 CNS
SNB-75 CNS = system: SNB-75 CNS
SNB-19 CNS = system: SNB-19 CNS
PC-3 prostate = system: PC-3 prostate
HT29 colon = system: HT29 colon
SK-MEL-28 melanoma = system: SK-MEL-28 melanoma
M14 melanoma = system: M14 melanoma
OVCAR-4 ovarian = system: OVCAR-4 ovarian
MDA-MB-435 = system: MDA-MB-435
MALME-3M melanoma = system: MALME-3M melanoma
TK-10 renal = system: TK-10 renal
HCT-15 colon = system: HCT-15 colon
OVCAR-8 ovarian = system: OVCAR-8 ovarian
SW-620 colon = system: SW-620 colon
786-0 renal = system: 786-0 renal
NCI-H23 lung = system: NCI-H23 lung
CAKI-1 renal = system: CAKI-1 renal
SF-268 CNS = system: SF-268 CNS
NCI-H522 lung = system: NCI-H522 lung
SK-MEL-5 melanoma = system: SK-MEL-5 melanoma
BT-549 breast = system: BT-549 breast
A498 renal = system: A498 renal
IGROV1 ovarian = system: IGROV1 ovarian
HOP-62 NSCLC = system: HOP-62 NSCLC
HCT-116 colon = system: HCT-116 colon
HCC-2998 colon = system: HCC-2998 colon
ACHN renal = system: ACHN renal
OVCAR-5 ovarian = system: OVCAR-5 ovarian
SK-OV-3 ovarian = system: SK-OV-3 ovarian
MDA-MB-231 breast = system: MDA-MB-231 breast
OVCAR-3 ovarian = system: OVCAR-3 ovarian
EKVX NSCLC = system: EKVX NSCLC
HS 578T breast = system: HS 578T breast
KM12 colon = system: KM12 colon

Measured: TGI

CC(C)(C)OC(=O)NCCC1SC2C=CC1C2 (stereo not drawn)
> 100 µM: LOX IMVI melanoma | NCI-H460 lung | MDA-N | HOP-92 NSCLC | HL-60(TB) leukemia | MOLT-4 leukemia | RPMI-8226 leukemia | SF-539 CNS | RXF 393 renal | COLO 205 colon | DU-145 prostate | MCF7 breast | UACC-62 melanoma | A549 NSCLC | SK-MEL-2 melanoma | UO-31 renal | SN12C renal | NCI/ADR-RES ovarian | CCRF-CEM leukemia | T-47D breast | SF-295 CNS | K-562 leukemia | NCI-H226 lung | UACC-257 melanoma | U251 CNS | SNB-75 CNS | SNB-19 CNS | PC-3 prostate | HT29 colon | SK-MEL-28 melanoma | M14 melanoma | OVCAR-4 ovarian | MDA-MB-435 | MALME-3M melanoma | TK-10 renal | HCT-15 colon | OVCAR-8 ovarian | SW-620 colon | 786-0 renal | NCI-H23 lung | CAKI-1 renal | SF-268 CNS | NCI-H522 lung | SK-MEL-5 melanoma | BT-549 breast | A498 renal | IGROV1 ovarian | HOP-62 NSCLC | HCT-116 colon | HCC-2998 colon | ACHN renal | OVCAR-5 ovarian | SK-OV-3 ovarian | MDA-MB-231 breast | OVCAR-3 ovarian | EKVX NSCLC | HS 578T breast | KM12 colon
